# Laboratory results published in patent publication US9776979B2, “EBI2 modulators” (Sanford-Burnham Medical Research Institute, priority 2013, dated 2017).
# Target: EBI2 (Homo sapiens, UniProt P32249)
# Assay: Cell-based luminescent assay (EBI2 modulation)
# Conditions: not given
# How it was run: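 Cells plated overnight at 37° C, then exposed to compound at 4-5 uM final with 80 nM 7a,25-OHC agonist for 60 min at 37° C. Luminescence read after 60 min detection at 25° C in the dark; values normalized to neutral and stimulator controls and plate-pattern corrected.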
# EBI2, sequence (P32249 whole entry): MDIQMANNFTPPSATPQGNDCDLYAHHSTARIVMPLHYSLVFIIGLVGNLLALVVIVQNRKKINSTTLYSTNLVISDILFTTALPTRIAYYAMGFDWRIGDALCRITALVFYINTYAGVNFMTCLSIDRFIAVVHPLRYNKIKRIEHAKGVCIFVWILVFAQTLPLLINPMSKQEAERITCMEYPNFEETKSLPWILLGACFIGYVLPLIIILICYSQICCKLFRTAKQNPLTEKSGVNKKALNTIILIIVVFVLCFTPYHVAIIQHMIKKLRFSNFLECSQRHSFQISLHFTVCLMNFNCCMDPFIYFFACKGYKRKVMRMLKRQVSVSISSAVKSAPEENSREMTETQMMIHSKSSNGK
row,SMILES,IC50 [nM]
1,"Cc1cccc(CN2CCN(C(=O)/C=C/c3ccccc3)CC2)c1 [Compound C201, (2E)-1-{4-[(3-methylphenyl)methyl]piperazinyl}-3-phenylprop-2-en-1-one]",< 100

# Same assay, conditions: cell-based luminescence; 7a,25-OHC final assay concentration 80 nM; 60 minutes incubation; read-out: IC50
row,SMILES,IC50 [nM]
1,"Cn1c(C(=O)N2CCN(C(c3ccccc3)c3ccccc3)CC2)cc2ccsc21 [Compound C173, 4-(diphenylmethyl)piperazinyl 6-methylthiopheno[3,2-d]pyrrol-5-yl ketone]",500 to 5000
2,"O=C(/C=C/c1cc(Br)ccc1F)N1CCN(S(=O)(=O)c2ccc(Br)cc2)CC1 [Compound C174, (2E)-3-(5-bromo-2-fluorophenyl)-1-{4-[(4-bromophenyl)sulfonyl]piperazinyl}prop-2-en-1-one]",500 to 5000
3,"O=C(c1cnc2ccccc2c1)N1CCN(Cc2ccc(Cl)cc2)CC1 [Compound C175, 4-[(4-chlorophenyl)methyl]piperazinyl 3-quinolyl ketone]",500 to 5000
4,"O=C(O)c1ccc(CN2CCN(C(=O)c3cc4cc(Cl)ccc4[nH]3)CC2)cc1 [Compound C177, 4-({4-[(5-chloroindol-2-yl)carbonyl]piperazinyl}methyl)benzoic acid]",500 to 5000
5,"O=C(c1cc2cccc([N+](=O)[O-])c2[nH]1)N1CCN(C(c2ccccc2)c2ccccc2)CC1 [Compound C178, 4-(diphenylmethyl)piperazinyl 7-nitroindol-2-yl ketone]",500 to 5000
6,"O=C(C#Cc1ccc(F)cc1)N1CCN(Cc2ccc(F)cc2C(F)(F)F)CC1 [Compound C179, 3-(4-fluorophenyl)-1-(4-{[4-fluoro-2-(trifluoromethyl)phenyl]methyl}piperazinyl)prop-2-yn-1-one]",500 to 5000
7,"O=C(c1cc2ccc(Br)cc2[nH]1)N1CCN(Cc2ccc(Br)cc2)CC1 [Compound C180, 6-bromoindol-2-yl 4-[(4-bromophenyl)methyl]piperazinyl ketone]",500 to 5000
8,"O=C(Nc1ccc(F)cc1)c1ccc(CN2CCN(C(=O)c3cc4cc(Cl)ccc4[nH]3)CC2)cc1 [Compound C181, [4-({4-[(5-chloroindol-2-yl)carbonyl]piperazinyl}methyl)phenyl]-N-(4-fluorophenyl)carboxamide]",500 to 5000
9,"O=C(c1cc2cc(Cl)ccc2[nH]1)N1CCN(c2ccccn2)CC1 [Compound C182, 5-chloroindol-2-yl 4-(2-pyridyl)piperazinyl ketone]",500 to 5000
10,"O=C(c1ccc2nc(C(F)(F)F)[nH]c2c1)N1CCN(C(=O)c2cc3cc(Cl)ccc3[nH]2)CC1 [Compound C183, 5-chloroindol-2-yl 4-{[2-(trifluoromethyl)benzimidazol-5-yl]carbonyl}piperazinyl ketone]",500 to 5000
11,"O=C(NC1CCN(C(=O)c2cc3cc(Cl)ccc3[nH]2)CC1)c1ccc(Cl)cc1 [Compound C184, N-{1-[(5-chloroindol-2-yl)carbonyl](4-piperidyl)}(4-chlorophenyl)carboxamide]",500 to 5000
12,"Cc1c(C(=O)N2CCN(C(c3ccccc3)c3ccccc3)CC2)sc2ccccc12 [Compound C185, 4-(diphenylmethyl)piperazinyl 3-methylbenzo[b]thiophen-2-yl ketone]",500 to 5000
13,"O=C(C=Cc1ccc2c(c1)OCO2)N1CCN(Cc2ccc(F)cc2C(F)(F)F)CC1 [Compound C186, 3-(2H-benzo[3,4-d]1,3-dioxolan-5-yl)-1-(4-{[4-fluoro-2-(trifluoromethyl)phenyl]methyl}piperazinyl)prop-2-en-1-one]",500 to 5000
14,"O=C(Nc1ccc(F)cc1)c1cccc(CN2CCN(C(=O)c3cc4cc(Cl)ccc4[nH]3)CC2)c1 [Compound C187, [3-({4-[(5-chloroindol-2-yl)carbonyl]piperazinyl}methyl)phenyl]-N-(4-fluorophenyl)carboxamide]",500 to 5000
15,"O=C(O)c1cccc(CN2CCN(C(=O)c3cc4cc(Cl)ccc4[nH]3)CC2)c1 [Compound C188, 3-({4-[(5-chloroindol-2-yl)carbonyl]piperazinyl}methyl)benzoic acid]",500 to 5000
16,"O=C(c1cc2ccc(F)cc2[nH]1)N1CCN(C(=O)c2ccc(F)cc2C(F)(F)F)CC1 [Compound C189, 6-fluoroindol-2-yl 4-{[4-fluoro-2-(trifluoromethyl)phenyl]carbonyl}piperazinyl ketone]",500 to 5000
17,"CC(C)(C)c1ccc(S(=O)(=O)N2CCN(C(=O)/C=C/c3ccccc3F)CC2)cc1 [Compound C190, (2E)-1-(4-{[4-(tert-butyl)phenyl]sulfonyl}piperazinyl)-3-(2-fluorophenyl)prop-2-en-1-one]",500 to 5000
18,"O=C(/C=C/c1ccccc1)N1CCN(Cc2ccccn2)CC1 [Compound C191, (2E)-3-phenyl-1-[4-(2-pyridylmethyl)piperazinyl]prop-2-en-1-one]",500 to 5000
19,"O=C(/C=C/c1ccc(F)cc1)N1CCCN(C(c2ccccc2)c2ccccc2)CC1 [Compound C192, (2E)-1-[4-(diphenylmethyl)(1,4-diazaperhydroepinyl)]-3-(4-fluorophenyl)prop-2-en-1-one]",500 to 5000
20,"O=C(c1cc2ncccc2[nH]1)N1CCN(C(c2ccccc2)c2ccccc2)CC1 [Compound C193, 4-(diphenylmethyl)piperazinyl pyrrolo[4,5-b]pyridin-2-yl ketone]",500 to 5000
21,"O=C(c1ccc(P(=O)(O)O)cc1)N1CCN(C(=O)c2cc3cc(Cl)ccc3[nH]2)CC1 [Compound C194, 5-chloroindol-2-yl 4-[(4-phosphonophenyl)carbonyl]piperazinyl ketone]",500 to 5000
22,"O=C(C#Cc1cc(F)cc(F)c1)N1CCN(Cc2ccc(C(F)(F)F)cc2)CC1 [Compound C195, 3-(3,5-difluorophenyl)-1-(4-{[4-(trifluoromethyl)phenyl]methyl}piperazinyl)prop-2-yn-1-one]",500 to 5000
23,"Cc1ccccc1/C=C/C(=O)N1CCN(S(=O)(=O)c2ccccc2)CC1 [Compound C196, (2E)-3-(2-methylphenyl)-1-[4-(phenylsulfonyl)piperazinyl]prop-2-en-1-one]",500 to 5000
24,"O=C(C#Cc1cc(F)cc(F)c1)N1CCN(Cc2ccc(F)cc2)CC1 [Compound C197, 3-(3,5-difluorophenyl)-1-{4-[(4-fluorophenyl)methyl]piperazinyl}prop-2-yn-1-one]",500 to 5000
25,"O=C(/C=C/c1ccc(F)cc1)N1CCCN(S(=O)(=O)/C=C/c2ccccc2)CC1 [Compound C198, (2E)-1-{4-[((1E)-2-phenylvinyl)sulfonyl](1,4-diazaperhydroepinyl)}-3-(4-fluorophenyl)prop-2-en-1-one]",500 to 5000
26,"O=C(c1cc2cc(Cl)ccc2[nH]1)N1CCC(N2CCOCC2)CC1 [Compound C199, 5-chloroindol-2-yl 4-morpholin-4-ylpiperidyl ketone]",500 to 5000
27,"O=C(c1ccc(C(F)(F)F)c(F)c1)N1CCN(C(=O)c2cc3cc(C(F)(F)F)ccc3[nH]2)CC1 [Compound C200, 4-{[3-fluoro-4-(trifluoromethyl)phenyl]carbonyl}piperazinyl 5-(trifluoromethyl)indol-2-yl ketone]",< 100
28,"CC(C)(C)c1ccc(S(=O)(=O)N2CCN(C(=O)/C=C/c3ccc(F)cc3)CC2)cc1 [Compound C202, (2E)-1-(4-{[4-(tert-butyl)phenyl]sulfonyl}piperazinyl)-3-(4-fluorophenyl)prop-2-en-1-one]",< 100
29,"O=C(/C=C/c1ccccc1)N1CCN(Cc2ccc(Br)cc2)CC1 [Compound C203, (2E)-1-{4-[(4-bromophenyl)methyl]piperazinyl}-3-phenylprop-2-en-1-one]",< 100
